Laboratory results as given in patent US8193185B2, “Use of tryptanthrin compounds for immune potentiation” (Novartis Vaccines and Diagnostics, Inc., priority 2003, dated 2012).

What follows are molecules tested on human peripheral blood mononuclear cells (PBMC) (assay: HTS assay for small molecule immune potentiators: TNF-a production by human PBMC (sandwich ELISA)). Conditions: human PBMC 500,000 per mL, 18 h at 37° C., secreted TNF by sandwich ELISA.
Assay type: cell-based
Text: Candidate small molecule immune potentiators can be identified in vitro. Compounds are screened in vitro for their ability to stimulate human peripheral blood mononuclear cells to produce cytokines (e.g. TNF-a and IL-12 p40). Apoptosis inducing small molecules may be identified having this activity. These small molecule immunopotentiators have potential utility as adjuvants and immunotherapeutics.
In an assay procedure (High Throughput Screening (HTS)) for small molecule immune potentiators (SMIPs), human peripheral blood mononuclear cells (PBMC), 500,000 per mL in RPMI 1640 medium with 10% FCS, are distributed in 96 well plates (100,000 per well) already containing 5 μM of compound in DMSO. The PBMCs are incubated for 18 h at 37° C. in 5% CO2. Their ability to produce cytokines in response to the small molecule compounds is determined using a modified sandwich ELISA.
Briefly supernatants from the PBMC cultures are assayed for secreted TNF using a primary plate bound antibody for capture followed by a secondary biotinylated anti-TNF antibody forming a sandwich. The biotinylated second antibody is then detected using streptavidin-Europium and the amount of bound europium is determined by time resolved fluorescence. Compounds are screened for their TNF inducing activity that is measured in the assay as increased Europim counts over cells incubated in RPMI medium alone. “Hits” are selected based on their TNF-inducing activity relative to an optimal dose of lipopolysaccaride LPS (1 μg/ml), a strong TNF inducer. The robustness of the assay and low backgrounds have allowed for the routine selection of hits with ˜10% of LPS activity that is normally between 5-10× background (cells alone). Selected hits are then subjected to confirmation for their ability to induce cytokines from multiple donors at decreasing concentrations. Those compounds with consistent activity at or below 5 μM are considered confirmed for the purposes of this assay. The assay is readily modified for screening for compounds effective at higher or lower concentrations.

`O=C1c2cc(I)ccc2-n2c1nc1ncccc1c2=O` [Compound 1028, 9-iodopyrido[2′,3′:4,5]pyrimi-do[1,2-a]indole-5,11-dione] and `O=C1c2cc(F)ccc2-n2c1nc1ncccc1c2=O` [Compound 1025, 9-fluoropyrido[2′,3′:4,5]pyri-mido[1,2-a]indole-5,11-dione] cannot be ordered by minimal effective concentration: no more than 1.5 µM for the first, no more than 1.5 µM for the second.

`O=C1c2cc(Cl)ccc2-n2c1nc1cc(F)ccc1c2=O` [Compound 1017, 8-chloro-3-fluoroindolo[2,1-b]quinazoline-6,12-dione] and `O=C1c2cc(F)ccc2-n2c1nc1cc(F)ccc1c2=O` [Compound 1004, 3,8-difluoroindolo[2,1-b]quinazoline-6,12-dione] cannot be ordered by minimal effective concentration: no more than 1.5 µM for the first, no more than 1.5 µM for the second.

`CCCCCCCC(=O)OCCN(C)c1ccc2c(=O)n3c(nc2c1)C(=O)c1cc(Cl)ccc1-3` [Compound 1049, 2-[(8-chloro-6,12-dioxo-6,12-dihydroindolo[2,1-b]quinazolin-3-yl)(methyl)amino]ethyl octanoate] and `CCOC(=O)c1ccc2c(c1)C(=O)c1nc3ccccc3c(=O)n1-2` [Compound 1039, ethyl 6,12-dioxo-6,12-dihydroindolo[2,1-b]quinazoline-8-carboxylate] cannot be ordered by minimal effective concentration: no less than 20 µM for the first, no less than 20 µM for the second.

Compared with `O=C1c2cc(F)ccc2-n2c1nc1c(OCc3ccccc3)cccc1c2=O` [Compound 1044, 8-fluoro-4-[(phenylmethyl)oxy]indolo [2,1-b]quinazoline-6,12-dione], `O=C1c2cc(Br)ccc2-n2c1nc1ncccc1c2=O` [Compound 1026, 9-bromopyrido[2′,3′:4,5]pyri-mido[1,2-a]indole-5,11-dione] is lower in minimal effective concentration: no less than 20 µM for the first, no more than 1.5 µM for the second.

First: CCOC(=O)c1ccc2c(c1)C(=O)c1nc3ncccc3c(=O)n1-2 [Compound 1029, ethyl 5,11-dioxo-5,11-dihydropyrido[2′,3′:4,5]py-rimido[1,2-a]indole-9-carboxylate]
Second: O=C1c2cc(I)ccc2-n2c1nc1c(Br)cc(Br)cc1c2=O [Compound 1010, 2,4-dibromo-8-iodoindolo[2,1-b]quinazoline-6,12-dione]
The minimal effective concentration of the first is lower: no more than 1.5 µM for the first, no less than 5 µM for the second.

First: O=C1c2cc(I)ccc2-n2c1nc1c(Br)cc(Br)c(Cl)c1c2=O [Compound 1014, 2,4-dibromo-1-chloro-8-iodoindolo[2,1-b]quinazoline-6,12-dione]
Second: O=C1c2cc(Cl)ccc2-n2c1nc1cc(N3CCCCC3)ccc1c2=O [Compound 1018, 8-chloro-3-piperidin-1-ylindolo[2,1-b]quinazoline-6,12-dione]
The minimal effective concentration of the first is lower: no more than 1.5 µM for the first, no less than 5 µM for the second.
